Test results reported in PubChem BioAssay (NCI).
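Five compound concentrations were applied to cells in 96-well plates for 48 hours; endpoints were derived by simple linear interpolation of the resulting dose-response curve. GI50 marks 50% less growth. The concentration for full growth arrest is given as TGI.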

How the values were obtained:
Assay in all cases: NCI anticancer screen, dose series, 48 h
HCT-15 colon = test system: HCT-15 colon
DU-145 prostate = test system: DU-145 prostate
RXF 393 renal = test system: RXF 393 renal
A498 renal = test system: A498 renal
NCI-H522 lung = test system: NCI-H522 lung
SF-539 CNS = test system: SF-539 CNS
RPMI-8226 leukemia = test system: RPMI-8226 leukemia
OVCAR-4 ovarian = test system: OVCAR-4 ovarian
TK-10 renal = test system: TK-10 renal
SK-OV-3 ovarian = test system: SK-OV-3 ovarian
UO-31 renal = test system: UO-31 renal
EKVX NSCLC = test system: EKVX NSCLC
SN12C renal = test system: SN12C renal
M14 melanoma = test system: M14 melanoma
HOP-62 NSCLC = test system: HOP-62 NSCLC
A549 NSCLC = test system: A549 NSCLC
IGROV1 ovarian = test system: IGROV1 ovarian
HCC-2998 colon = test system: HCC-2998 colon
U251 CNS = test system: U251 CNS
SK-MEL-2 melanoma = test system: SK-MEL-2 melanoma
UACC-62 melanoma = test system: UACC-62 melanoma
HS 578T breast = test system: HS 578T breast
SK-MEL-28 melanoma = test system: SK-MEL-28 melanoma
NCI/ADR-RES ovarian = test system: NCI/ADR-RES ovarian
UACC-257 melanoma = test system: UACC-257 melanoma
OVCAR-8 ovarian = test system: OVCAR-8 ovarian
NCI-H23 lung = test system: NCI-H23 lung
SF-295 CNS = test system: SF-295 CNS
CCRF-CEM leukemia = test system: CCRF-CEM leukemia
MDA-MB-231 breast = test system: MDA-MB-231 breast
COLO 205 colon = test system: COLO 205 colon
786-0 renal = test system: 786-0 renal
SF-268 CNS = test system: SF-268 CNS
T-47D breast = test system: T-47D breast
MALME-3M melanoma = test system: MALME-3M melanoma
SW-620 colon = test system: SW-620 colon
MOLT-4 leukemia = test system: MOLT-4 leukemia
MDA-MB-435 = test system: MDA-MB-435
NCI-H460 lung = test system: NCI-H460 lung
SR leukemia = test system: SR leukemia
SK-MEL-5 melanoma = test system: SK-MEL-5 melanoma
LOX IMVI melanoma = test system: LOX IMVI melanoma
HL-60(TB) leukemia = test system: HL-60(TB) leukemia
CAKI-1 renal = test system: CAKI-1 renal
PC-3 prostate = test system: PC-3 prostate
NCI-H226 lung = test system: NCI-H226 lung
BT-549 breast = test system: BT-549 breast
HOP-92 NSCLC = test system: HOP-92 NSCLC
SNB-75 CNS = test system: SNB-75 CNS
ACHN renal = test system: ACHN renal
HT29 colon = test system: HT29 colon
SNB-19 CNS = test system: SNB-19 CNS
OVCAR-5 ovarian = test system: OVCAR-5 ovarian
KM12 colon = test system: KM12 colon
HCT-116 colon = test system: HCT-116 colon

**Q.** What does the source list for CCOc1ccccc1NC1=C(Cl)C(=O)c2nc(C)ccc2C1=O?
**A.** GI50 (HCT-15 colon): 1.13 µM; TGI (HCT-15 colon): 2.55 µM; GI50 (DU-145 prostate): 1.63 µM; TGI (DU-145 prostate): 2.99 µM; GI50 (RXF 393 renal): 1.44 µM; TGI (RXF 393 renal): 2.78 µM; GI50 (A498 renal): 2.65 µM; TGI (A498 renal): 10.8 µM; GI50 (NCI-H522 lung): 1.74 µM; TGI (NCI-H522 lung): 3.28 µM; GI50 (SF-539 CNS): 1.67 µM; TGI (SF-539 CNS): 3.09 µM; GI50 (RPMI-8226 leukemia): 1.2 µM; TGI (RPMI-8226 leukemia): 4.71 µM; GI50 (OVCAR-4 ovarian): 1 µM; TGI (OVCAR-4 ovarian): 2.22 µM; GI50 (TK-10 renal): 2.25 µM; TGI (TK-10 renal): 3.72 µM; GI50 (SK-OV-3 ovarian): 13.5 µM; TGI (SK-OV-3 ovarian): 27.1 µM; GI50 (UO-31 renal): 1.4 µM; TGI (UO-31 renal): 2.71 µM; GI50 (EKVX NSCLC): 1.56 µM; TGI (EKVX NSCLC): 2.98 µM; GI50 (SN12C renal): 1.59 µM; TGI (SN12C renal): 3.04 µM; GI50 (M14 melanoma): 1.46 µM; TGI (M14 melanoma): 2.83 µM; GI50 (HOP-62 NSCLC): 2.27 µM; TGI (HOP-62 NSCLC): 6.74 µM; GI50 (A549 NSCLC): 2.06 µM; TGI (A549 NSCLC): 4.65 µM; GI50 (IGROV1 ovarian): 1.37 µM; TGI (IGROV1 ovarian): 2.82 µM; GI50 (HCC-2998 colon): 1.94 µM; TGI (HCC-2998 colon): 3.52 µM; GI50 (U251 CNS): 1.7 µM; TGI (U251 CNS): 3.27 µM; GI50 (SK-MEL-2 melanoma): 1.44 µM; TGI (SK-MEL-2 melanoma): 2.86 µM; GI50 (UACC-62 melanoma): 1.8 µM; TGI (UACC-62 melanoma): 3.36 µM; GI50 (HS 578T breast): 2.11 µM; TGI (HS 578T breast): 5.25 µM; GI50 (SK-MEL-28 melanoma): 1.71 µM; TGI (SK-MEL-28 melanoma): 3.14 µM; GI50 (NCI/ADR-RES ovarian): 1.89 µM; TGI (NCI/ADR-RES ovarian): 5.09 µM; GI50 (UACC-257 melanoma): 1.28 µM; TGI (UACC-257 melanoma): 2.61 µM; GI50 (OVCAR-8 ovarian): 1.49 µM; TGI (OVCAR-8 ovarian): 2.92 µM; GI50 (NCI-H23 lung): 1.44 µM; TGI (NCI-H23 lung): 3.55 µM; GI50 (SF-295 CNS): 2.03 µM; TGI (SF-295 CNS): 4.2 µM; GI50 (CCRF-CEM leukemia): 1.41 µM; TGI (CCRF-CEM leukemia): > 100 µM; GI50 (MDA-MB-231 breast): 1.07 µM; TGI (MDA-MB-231 breast): 2.38 µM; GI50 (COLO 205 colon): 1.73 µM; TGI (COLO 205 colon): 3.66 µM; GI50 (786-0 renal): 1.8 µM; TGI (786-0 renal): 3.25 µM; GI50 (SF-268 CNS): 1.47 µM; TGI (SF-268 CNS): 2.94 µM; GI50 (T-47D breast): 0.467 µM; TGI (T-47D breast): 3.17 µM; GI50 (MALME-3M melanoma): 1.36 µM; TGI (MALME-3M melanoma): 2.77 µM; GI50 (SW-620 colon): 1.6 µM; TGI (SW-620 colon): 3.21 µM; GI50 (MOLT-4 leukemia): 2.03 µM; TGI (MOLT-4 leukemia): 8.09 µM; GI50 (MDA-MB-435): 0.266 µM; TGI (MDA-MB-435): 0.671 µM; GI50 (NCI-H460 lung): 3.02 µM; TGI (NCI-H460 lung): 11.4 µM; GI50 (SR leukemia): 0.543 µM; TGI (SR leukemia): 4.14 µM; GI50 (SK-MEL-5 melanoma): 1.74 µM; TGI (SK-MEL-5 melanoma): 3.13 µM; GI50 (LOX IMVI melanoma): 0.839 µM; TGI (LOX IMVI melanoma): 2.22 µM; GI50 (HL-60(TB) leukemia): 1.03 µM; TGI (HL-60(TB) leukemia): 2.92 µM; GI50 (CAKI-1 renal): 1.45 µM; TGI (CAKI-1 renal): 2.84 µM; GI50 (PC-3 prostate): 1.26 µM; TGI (PC-3 prostate): 2.77 µM; GI50 (NCI-H226 lung): 1.78 µM; TGI (NCI-H226 lung): 4.24 µM; GI50 (BT-549 breast): 1.52 µM; TGI (BT-549 breast): 2.88 µM; GI50 (HOP-92 NSCLC): 1.8 µM; TGI (HOP-92 NSCLC): 3.33 µM; GI50 (SNB-75 CNS): 1.63 µM; TGI (SNB-75 CNS): 3.43 µM; GI50 (ACHN renal): 1.35 µM; TGI (ACHN renal): 2.69 µM; GI50 (HT29 colon): 3.4 µM; TGI (HT29 colon): 15.2 µM; GI50 (SNB-19 CNS): 1.8 µM; TGI (SNB-19 CNS): 3.97 µM; GI50 (OVCAR-5 ovarian): 1.84 µM; TGI (OVCAR-5 ovarian): 3.33 µM; GI50 (KM12 colon): 1.41 µM; TGI (KM12 colon): 2.89 µM; GI50 (HCT-116 colon): 1.05 µM; TGI (HCT-116 colon): 2.31 µM
